Assay results published in ChEMBL document CHEMBL1201862, “PubChem BioAssay data set” (2004).
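Briefly, cells in 96-well plates were exposed to five compound concentrations for 48 h, and endpoints were estimated by linear interpolation. GI50 marks 50% less growth.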 Calls of active or inactive are those of the source. No stated cut-off is given here; in the data, active = GI50 up to about 1.1 µM and inactive = higher.

How the values were obtained:
Assay in all cases: NCI anticancer screen, dose series, 48 h
[1] = test system: SW-620
[2] = test system: SK-OV-3
[3] = test system: EKVX
[4] = test system: OVCAR-8
[5] = test system: M19-MEL
[6] = test system: RPMI-8226
[7] = test system: HOP-18
[8] = test system: MOLT-4
[9] = test system: SR
[10] = test system: HCT-116
[11] = test system: XF498
[12] = test system: CAKI-1
[13] = test system: M14
[14] = test system: U-251
[15] = test system: SK-MEL-5
[16] = test system: NCI-H460
[17] = test system: OVCAR-5
[18] = test system: UACC-62
[19] = test system: SK-MEL-28
[20] = test system: HT-29
[21] = test system: A498
[22] = test system: NCI-H23
[23] = test system: DLD-1
[24] = test system: RXF 631
[25] = test system: HCC 2998
[26] = test system: HOP-92
[27] = test system: K562
[28] = test system: SF-295
[29] = test system: HOP-62
[30] = test system: DMS-114
[31] = test system: NCI-H522
[32] = test system: UO-31
[33] = test system: ACHN
[34] = test system: LOX IMVI
[35] = test system: CCRF-CEM
[36] = test system: KM12
[37] = test system: SNB-19
[38] = test system: HCT-15
[39] = test system: SF-539
[40] = test system: OVCAR-4
[41] = test system: DMS-273
[42] = test system: OVCAR-3
[43] = test system: SNB-75
[44] = test system: SF-268
[45] = test system: HL-60
[46] = test system: IGROV-1
[47] = test system: SNB-78
[48] = test system: LXFL 529
[49] = test system: A549
[50] = test system: UACC-257
[51] = test system: SN12C
[52] = test system: TK-10
[53] = test system: RXF 393
[54] = test system: 786-0
[55] = test system: KM-20L2
[56] = test system: NCI-H226
[57] = test system: Malme-3M
[58] = test system: COLO 205
[59] = test system: SK-MEL-2

CN(C)CCC(=O)N1CCc2c([nH]c3ccccc23)C1c1cccnc1 (stereo not given)
GI50 [1]: > 100 µM (inactive)
GI50 [2]: > 100 µM (inactive)
GI50 [3]: > 100 µM (inactive)
GI50 [4]: > 100 µM (inactive)
GI50 [5]: > 100 µM (inactive)
GI50 [6]: > 100 µM (inactive)
GI50 [7]: > 100 µM (inactive)
GI50 [8]: > 100 µM (inactive)
GI50 [9]: > 100 µM (inactive)
GI50 [10]: > 100 µM (inactive)
GI50 [11]: > 100 µM (inactive)
GI50 [12]: > 100 µM (inactive)
GI50 [13]: > 100 µM (inactive)
GI50 [14]: > 100 µM (inactive)
GI50 [15]: > 100 µM (inactive)
GI50 [16]: > 100 µM (inactive)
GI50 [17]: > 100 µM (inactive)
GI50 [18]: > 100 µM (inactive)
GI50 [19]: 54.2 µM (inactive)
GI50 [20]: > 100 µM (inactive)
GI50 [21]: > 100 µM (inactive)
GI50 [22]: > 100 µM (inactive)
GI50 [23]: > 100 µM (inactive)
GI50 [24]: > 100 µM (inactive)
GI50 [25]: > 100 µM (inactive)
GI50 [26]: 36.3 µM (inactive)
GI50 [27]: > 100 µM (inactive)
GI50 [28]: > 100 µM (inactive)
GI50 [29]: > 100 µM (inactive)
GI50 [30]: > 100 µM (inactive)
GI50 [31]: > 100 µM (inactive)
GI50 [32]: 41.6 µM (inactive)
GI50 [33]: > 100 µM (inactive)
GI50 [34]: > 100 µM (inactive)
GI50 [35]: > 100 µM (inactive)
GI50 [36]: > 100 µM (inactive)
GI50 [37]: > 100 µM (inactive)
GI50 [38]: > 100 µM
GI50 [39]: > 100 µM (inactive)
GI50 [40]: > 100 µM (inactive)
GI50 [41]: > 100 µM (inactive)
GI50 [42]: > 100 µM (inactive)
GI50 [43]: 78.3 µM (inactive)
GI50 [44]: > 100 µM (inactive)
GI50 [45]: > 100 µM (inactive)
GI50 [46]: > 100 µM (inactive)
GI50 [47]: > 100 µM (inactive)
GI50 [48]: 34.9 µM (inactive)
GI50 [49]: > 100 µM (inactive)
GI50 [50]: 28.5 µM (inactive)
GI50 [51]: > 100 µM (inactive)
GI50 [52]: > 100 µM (inactive)
GI50 [53]: 0.192 µM (active)
GI50 [54]: > 100 µM (inactive)
GI50 [55]: > 100 µM (inactive)

COc1ccc(C2SCc3nc4ccccc4n32)cc1 (stereo not given)
GI50 [1]: 3.44 µM (inactive)
GI50 [2]: 3.5 µM (inactive)
GI50 [3]: 19.5 µM (inactive)
GI50 [4]: 6.07 µM (inactive)
GI50 [5]: 3.95 µM (inactive)
GI50 [6]: 2.96 µM (inactive)
GI50 [7]: > 100 µM (inactive)
GI50 [56]: 8.99 µM (inactive)
GI50 [8]: 3.37 µM (inactive)
GI50 [11]: 0.124 µM (active)
GI50 [12]: 2.21 µM (inactive)
GI50 [13]: 4.95 µM (inactive)
GI50 [14]: 3.33 µM (inactive)
GI50 [15]: 3.84 µM (inactive)
GI50 [16]: 3.86 µM (inactive)
GI50 [18]: 3.58 µM (inactive)
GI50 [19]: 4.32 µM (inactive)
GI50 [20]: 2.4 µM (inactive)
GI50 [21]: 5.13 µM (inactive)
GI50 [22]: 4.04 µM (inactive)
GI50 [24]: 7.26 µM (inactive)
GI50 [57]: 7.55 µM (inactive)
GI50 [26]: 1.85 µM (inactive)
GI50 [27]: 2.34 µM (inactive)
GI50 [28]: 2.94 µM (inactive)
GI50 [30]: 2.26 µM (inactive)
GI50 [31]: 0.986 µM (active)
GI50 [32]: 10 µM (inactive)
GI50 [33]: 5.04 µM (inactive)
GI50 [34]: 5.78 µM (inactive)
GI50 [35]: 3.49 µM (inactive)
GI50 [37]: 6.07 µM (inactive)
GI50 [38]: 3.16 µM
GI50 [39]: 5.66 µM (inactive)
GI50 [41]: 3.43 µM (inactive)
GI50 [42]: 6.28 µM (inactive)
GI50 [43]: 1.82 µM (inactive)
GI50 [44]: 5.43 µM (inactive)
GI50 [58]: 2.73 µM (inactive)
GI50 [45]: 1.91 µM (inactive)
GI50 [46]: 4.66 µM (inactive)
GI50 [47]: 8.95 µM (inactive)
GI50 [48]: 5.48 µM (inactive)
GI50 [59]: 3.9 µM (inactive)
GI50 [51]: 4.41 µM (inactive)
GI50 [52]: 23.2 µM (inactive)
GI50 [55]: 2.4 µM (inactive)

Cc1cc2c(cc1C)[n+]([O-])c(C(=O)C/C(=N/NC(=O)CC#N)C(=O)Nc1ccccc1C(F)(F)F)c(C)[n+]2[O-]
GI50 [1]: 50.6 µM (inactive)
GI50 [2]: > 100 µM (inactive)
GI50 [3]: 53.1 µM (inactive)
GI50 [4]: 50.8 µM (inactive)
GI50 [5]: 43.2 µM (inactive)
GI50 [7]: > 100 µM (inactive)
GI50 [56]: 26.9 µM (inactive)
GI50 [8]: 52 µM (inactive)
GI50 [10]: 4.05 µM (inactive)
GI50 [11]: 82.2 µM (inactive)
GI50 [12]: 57.7 µM (inactive)
GI50 [13]: 44.2 µM (inactive)
GI50 [14]: 49.5 µM (inactive)
GI50 [16]: 34.4 µM (inactive)
GI50 [17]: 62.2 µM (inactive)
GI50 [18]: 34 µM (inactive)
GI50 [19]: 70.8 µM (inactive)
GI50 [20]: 49.3 µM (inactive)
GI50 [21]: 52 µM (inactive)
GI50 [22]: 91.4 µM (inactive)
GI50 [24]: 16.9 µM (inactive)
GI50 [25]: 65.5 µM (inactive)
GI50 [57]: 3.56 µM (inactive)
GI50 [27]: 35.6 µM (inactive)
GI50 [28]: 95.7 µM (inactive)
GI50 [29]: > 100 µM (inactive)
GI50 [30]: 28.6 µM (inactive)
GI50 [31]: 18.8 µM (inactive)
GI50 [33]: 29.7 µM (inactive)
GI50 [34]: 53.8 µM (inactive)
GI50 [35]: 25.4 µM (inactive)
GI50 [36]: 34 µM (inactive)
GI50 [37]: 75 µM (inactive)
GI50 [38]: 36.6 µM
GI50 [39]: 50.2 µM (inactive)
GI50 [40]: 44 µM (inactive)
GI50 [41]: 53.6 µM (inactive)
GI50 [42]: 37 µM (inactive)
GI50 [43]: 36.6 µM (inactive)
GI50 [44]: 39.9 µM (inactive)
GI50 [58]: 46.1 µM (inactive)
GI50 [45]: 24.3 µM (inactive)
GI50 [46]: > 100 µM (inactive)
GI50 [47]: 2.59 µM (inactive)
GI50 [48]: 45.6 µM (inactive)
GI50 [49]: 35 µM (inactive)
GI50 [59]: 39.5 µM (inactive)
GI50 [50]: 44.6 µM (inactive)
GI50 [51]: 76 µM (inactive)
GI50 [52]: > 100 µM (inactive)
GI50 [53]: 77.1 µM (inactive)
GI50 [54]: 52.8 µM (inactive)
GI50 [55]: 37.5 µM (inactive)
